PMC5790795, “N-Acetylmuramic Acid (MurNAc) Auxotrophy of the Oral Pathogen Tannerella forsythia: Characterization of a MurNAc Kinase and Analysis of Its Role in Cell Wall Metabolism” (Frontiers in Microbiology, 2018)

Target: T1, Tf_MurK (rTf_MurK; Tanf_08380) (Tannerella forsythia, UniProt G8UQH1)
T1 construct: gene BFO_0034
T1 sequence (G8UQH1 19-302): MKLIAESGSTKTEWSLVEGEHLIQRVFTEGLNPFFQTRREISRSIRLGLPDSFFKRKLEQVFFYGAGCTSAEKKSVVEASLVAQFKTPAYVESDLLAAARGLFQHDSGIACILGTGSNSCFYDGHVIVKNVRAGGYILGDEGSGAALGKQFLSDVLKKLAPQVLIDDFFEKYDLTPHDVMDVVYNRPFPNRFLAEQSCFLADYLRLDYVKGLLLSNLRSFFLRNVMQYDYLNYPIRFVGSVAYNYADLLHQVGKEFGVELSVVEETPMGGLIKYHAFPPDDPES
Test: coupled pyruvate kinase / lactate dehydrogenase assay, NADH at […] nm
Type: biochemical
Conditions: ATP, 10 mM MgCl2, 50 mM phosphate pH 7.0, 20 °C; substrate inhibition constant

CC(=O)N[C@H]1C(O)O[C@H](CO)[C@@H](O)[C@@H]1O[C@H](C)C(=O)O (stereo partly shown) [MurNAc]
Ki(S): 4.2 mM
